Test in all cases: NCI tumour cell line growth inhibition, 48 h
The subject of experiment [1] is U-251.
The subject of experiment [2] is SF-295.
Experiment [3] relates to Malme-3M.
Experiment [4] relates to A498.
For experiment [5], the system named is NCI-H23.
Experiment [6] has as its system SNB-19.
Experiment [7] has as its system UO-31.
Experiment [8] deals with MCF7.
In experiment [9] the test system is SF-539.
Experiment [10] deals with TK-10.
Experiment [11] deals with HT-29.
For experiment [12], the system named is SK-MEL-5.
Experiment [13] concerns SK-MEL-2.
The test system of experiment [14] is SNB-75.
Experiment [15] has as its system NCI-H460.
The test system of experiment [16] is HOP-62.
The subject of experiment [17] is NCI-H522.
For experiment [18], the system named is HCC 2998.
Experiment [19] deals with HL-60.
Experiment [20] concerns HCT-116.

Where “and” joins values, the source holds several entries; their conditions need not be identical. Equal entries are not always repeated.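 The compound was tested at five concentrations on cells cultured in 96-well plates, with a 48-hour exposure period. Here, GI50 denotes the concentration required for 50% inhibition of growth.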 Calls of active or inactive are those of the source. Rule as the data show it: active = GI50 up to about 1.1 µM and inactive = higher.

Take `C=C1CC(Cn2ccc(=O)[nH]c2=O)(c2ccc(Cl)cc2)OC1=O` (centres undefined): the GI50 in experiment [1] is 17.7 µM (inactive); in experiment [2] it was 18.8 µM (inactive); in experiment [3], 2.46 µM (inactive); in experiment [4], 16.4 µM (inactive); in experiment [5], 5.48 µM (inactive); in experiment [6] it was 31.4 µM (inactive). For the same compound, the GI50 is 18 µM (inactive) in experiment [7]; 1.87 µM (inactive) in experiment [8]; 15.6 µM (inactive) in experiment [9]; 1.57 µM (inactive) in experiment [10]; 5.41 µM (inactive) in experiment [11]; 3.05 µM (inactive) in experiment [12]. The GI50 was 5.65 µM (inactive) in experiment [13]; 15.1 µM (inactive) in [14]; 9.53 µM (inactive) in experiment [15]; 18.2 µM (inactive) in [16]; 0.839 µM (active) in experiment [17]; 13.9 µM (inactive) in experiment [18]. The GI50 in [19] is 8.47 µM (inactive); in experiment [20], 2.3 µM (inactive).

With `COc1ccc2[nH]cc([C@@H]3C4CCC(C4)[C@H]3NCc3cccc(CN[C@H]4C5CCC(C5)[C@@H]4c4c[nH]c5ccc(OC)cc45)c3)c2c1`, the GI50 in experiment [2] is 1.45 µM (inactive) and 1.66 µM (inactive); in experiment [3], 1.86 µM (inactive) and 1.88 µM (inactive); in experiment [4], 1.82 µM (inactive) and 1.78 µM (inactive); in experiment [5], 1.75 µM (inactive) and 1.53 µM (inactive); in [6], 1.53 µM (inactive) and 1.65 µM (inactive); in [7] it was 1.36 µM (inactive) and 1.52 µM (inactive). The GI50 in [8] was 1.5 µM (inactive) and 1.01 µM (active); in experiment [9] it was 1 µM (active) and 1.73 µM (inactive); in [10] it was 1.63 µM (inactive) and 1.51 µM (inactive); in experiment [11], 230 nM (active) and 218 nM (active); in experiment [12], 1.62 µM (inactive) and 1.55 µM (inactive); in experiment [13] it was 1.59 µM (inactive) and 1.55 µM (inactive). The GI50 was 1.26 µM (inactive) and 1.22 µM (inactive) in experiment [14]; 340 nM (active) and 237 nM (active) in [15]; 1.62 µM (inactive) and 1.6 µM (inactive) in experiment [16]; 1.5 µM (inactive) and 1.17 µM (inactive) in [17]; 339 nM (active) and 256 nM (active) in experiment [18]; 214 nM (active) and 191 nM (active) in experiment [19]. Also, the GI50 in experiment [20] was 766 nM (active) and 678 nM (active).

`O=C(CCc1ccc(O)c(O)c1)NCCc1cc(O)c(O)c(O)c1`: the GI50 in experiment [1] is 17.9 µM (inactive); in [2], 19 µM (inactive); in experiment [3] it was > 100 µM (inactive); in experiment [4], > 100 µM (inactive); in experiment [5], 15.8 µM (inactive); in experiment [6], > 100 µM (inactive). Besides, the GI50 is 44.6 µM (inactive) in experiment [7]; 8.93 µM (inactive) in [8]; > 100 µM (inactive) in [9]; > 100 µM (inactive) in experiment [10]; 17.9 µM (inactive) in experiment [11]; 23.3 µM (inactive) in [12]. For the same compound, the GI50 in [13] was 21.8 µM (inactive); in experiment [14], 50.6 µM (inactive); in experiment [15], 20.6 µM (inactive); in experiment [16], 45.7 µM (inactive); in [17] it was 17.2 µM (inactive); in experiment [18], > 100 µM (inactive). Moreover, the values for the GI50 in [19] and in experiment [20] were 49.5 µM (inactive) and 18.6 µM (inactive), respectively.

On to `CCC1(CC)C(=O)N(C(=O)c2cc(OC)c(OC)c(OC)c2)N(C(=O)c2cc(OC)c(OC)c(OC)c2)C1=O`, for which the GI50 is > 50 µM (inactive) in experiment [1]; 24.8 µM (inactive) in experiment [2]; > 50 µM (inactive) in experiment [3]; > 50 µM (inactive) in experiment [4]; > 50 µM (inactive) in experiment [5]; > 50 µM (inactive) in experiment [6]. For the same compound, the GI50 is > 50 µM (inactive) in [7]; > 50 µM (inactive) in [8]; > 50 µM (inactive) in experiment [9]; > 50 µM (inactive) in experiment [10]; > 50 µM (inactive) in experiment [11]; 46.1 µM (inactive) in [12]. Also, the GI50 in experiment [13] was > 50 µM (inactive); in [14], 42.9 µM (inactive); in [15], > 50 µM (inactive); in experiment [16], > 50 µM (inactive); in experiment [17], > 50 µM (inactive); in experiment [18] it was > 50 µM (inactive). The results for the GI50 in experiment [19] and in experiment [20] were 28.5 µM (inactive) and > 50 µM (inactive), respectively.

For `Cc1cccc(C[C@@]2(SCc3ccccc3)C(C)(C)[C@@H]3CC[C@@]2(C)C3)n1`, the GI50 in experiment [1] is 16.6 µM (inactive); in experiment [2] it was 14 µM (inactive); in experiment [3], 15.5 µM (inactive); in [4], 15.3 µM (inactive); in [5], 13.9 µM (inactive); in experiment [6] it was 16.3 µM (inactive). Further, the GI50 in experiment [7] is 19.4 µM (inactive); in [8], 13.9 µM (inactive); in experiment [9], 23.3 µM (inactive); in [10] it was 17.6 µM (inactive); in [11] it was 15 µM (inactive); in [12], 15.9 µM (inactive). Besides, the GI50 in [13] was 13.9 µM (inactive); in [14] it was 15.2 µM (inactive); in [15], 15.6 µM (inactive); in experiment [16], 23.4 µM (inactive); in [17], 14.3 µM (inactive); in experiment [18], 15.4 µM (inactive). The figures for the GI50 in experiment [19] and in experiment [20] were 13.3 µM (inactive) and 14.7 µM (inactive), respectively.

With `CC[C@@]1(O)C(=O)OCc2c1cc1n(c2=O)Cc2c-1nc1ccccc1c2/C=N\NC(=O)C[n+]1ccccc1`, the GI50 in experiment [1] was 0.261 µM (active); in experiment [2], 0.247 µM (active); in experiment [3], 3.95 µM (inactive); in [4], 2.78 µM (inactive); in experiment [5] it was 0.388 µM (active); in experiment [6], 0.267 µM (active). Also, the GI50 in experiment [7] is 0.29 µM (active); in [8] it was 0.0735 µM (active); in experiment [9] it was 0.0752 µM (active); in [10] it was 20.5 µM (inactive); in experiment [11], 2.33 µM (inactive); in experiment [12], 0.366 µM (active). Also, the GI50 is 37.6 µM (inactive) in [13]; 0.23 µM (active) in [14]; 0.117 µM (active) in experiment [15]; 0.164 µM (active) in [16]; 0.991 µM (active) in experiment [17]; 8.13 µM (inactive) in experiment [18]. The GI50 in experiment [19] was 0.225 µM (active); in experiment [20] it was 0.783 µM (active).

For `COc1ccc(-c2nnc3n(Cc4ccccc4)c4ccccc4n3c2=O)cc1`, the GI50 was 19.9 µM (inactive) in experiment [1]; 15.9 µM (inactive) in experiment [2]; 51.9 µM (inactive) in experiment [3]; 22.7 µM (inactive) in [4]; 31.3 µM (inactive) in [5]; 23.2 µM (inactive) in experiment [6]. The GI50 is 39.9 µM (inactive) in experiment [7]; 29.4 µM (inactive) in experiment [8]; 13.2 µM (inactive) in [9]; 21.9 µM (inactive) in experiment [10]; > 100 µM (inactive) in experiment [11]; 53.5 µM (inactive) in experiment [12]. Moreover, the GI50 in [13] is 14.8 µM (inactive); in experiment [14], 11.9 µM (inactive); in experiment [15], 33.5 µM (inactive); in experiment [16], 1.92 µM (inactive); in experiment [17], 17.3 µM (inactive); in [18], > 100 µM (inactive). Moreover, the results for the GI50 in [19] and in experiment [20] were > 100 µM (inactive) and 38.7 µM (inactive), respectively.

Regarding `O=C(NNC(=S)Nc1ccc(Cl)cc1)C12CC3CC(CC(C3)C1)C2`, the GI50 in experiment [1] is 3.6 µM (inactive); in experiment [2], 5.87 µM (inactive); in experiment [3], 7.98 µM (inactive); in [4], 4.82 µM (inactive); in experiment [5], 7.5 µM (inactive); in [6], 5.15 µM (inactive). The GI50 in experiment [7] is 1.38 µM (inactive); in [8], 3.37 µM (inactive); in experiment [9], 3.93 µM (inactive); in [10] it was 16.5 µM (inactive); in experiment [11], 3.78 µM (inactive); in experiment [12] it was 3.85 µM (inactive). The GI50 in experiment [13] was 14.3 µM (inactive); in experiment [14], 15.6 µM (inactive); in [15] it was 2.97 µM (inactive); in [16] it was 11.2 µM (inactive); in experiment [17], 3.58 µM (inactive); in [18], 7.1 µM (inactive). In addition, the values for the GI50 in [19] and in [20] were 1.68 µM (inactive) and 2.57 µM (inactive), respectively.

Turning to `O=S(=O)(O)C(Cc1nc2ccccc2[nH]1)S(=O)(=O)OCCC1S(=O)(=O)OCCOS1(=O)=O` (centres undefined), the GI50 in experiment [1], in experiment [2], in [3], in experiment [4], in experiment [5] and in [6] was > 100 µM (inactive) in each case. The GI50 in [7], in experiment [8], in experiment [9], in [10], in experiment [11] and in [12] was > 100 µM (inactive) each time. Besides, the GI50 in [13], in experiment [14], in [15], in [16], in experiment [17] and in experiment [18] was > 100 µM (inactive) each time. Also, the GI50 in [19] and in experiment [20] was > 100 µM (inactive) throughout.

Values taken from ChEMBL document CHEMBL1201862, “PubChem BioAssay data set” (2004).
